In patent US20030229137A1, “Methods of inhibiting osteoclast activity” (priority 2001, published 2003):

Columns and labels:
[1] = system: osteoclast formation from PBMC; assay: in vitro osteoclast formation assay (RANKL/M-CSF, MTS/TRAP); type: cell-based; conditions: for IC50: Osteoclast, read-out: IC50 (osteoclast formation inhibition); for suppression of osteoclast formation under the test conditions (in words): Table 1 experiments
Description: Each of the kavalactones isolated in Example 1 was studied in an in vitro osteoclast formation assay. The protocol used (essentially that described in T. Yoneda et al., Endocrinology, 129(2):683-689 (1991) and H. Zhou et al., J Biol. Chem., 272, 14926 (2001)) is as follows:
(A) Osteoclast Formation Culture
1) Prepare assay wells (n=4) for each dilution of a test compound in a 384-plate. Each well contains 25 μl of 2× conc. of the compound in 10% FBS-media/0.5% DMSO.
2) Suspend PBMC in 10% FBS-media supplemented with 40 ng/ml of RANKL and 20 ng/ml of human M-CSF at 1.5 M cells/ml.
3) Vortex cell suspension and filtrate through mesh filter to remove cell aggregates.
4) Inoculate 25 μl of cell suspension to each well.
5) Centrifuge the assay plate at 1500 rpm (˜700 g) for 1 min.
6) Start osteoclast formation culture in a 5% CO2-incubator.
7) After 48 h of the culture, replenish 10 μl of 10% FBS-media supplemented with 120 ng/ml of RANKL and 60 ng/ml of M-CSF. Continue the culture until multiple osteoclasts are visible in control wells (up to 4˜5 days).
1) Add 6 μl of MTS reagent to each well and further incubate 1˜2 hrs.
2) Measure absorbance at 490 nm.
3) Discard MTS/culture media and fix cells in 60% acetone/0.38 M citrate buffer, pH 5.4 for 30 sec. Rinse cells with MQ once and air-dried.
4) Incubate each well in 25 μl of 5 mM p-nitrophenyl phosphate/tartrate/acetic acid solution for 2˜3 hrs (divert buffers from acid phosphate, leukocyte kit from Sigma #386-A).
5) Measure absorbance at 405 nm.
6) Discard p-nitrophenyl phosphate solution, rinse wells with MQ and stain cells with the acid phosphate, leukocyte kit.
7) Count multinucleate (>3) TRAP#-positive cell number under microscope. # Tartarate Resistant Acid Phosphatase

[2] = system: AA-stimulated aggregation in human platelets; conditions: applied five minutes before AA; cited from earlier work
[3] = system: ATP release in human platelets; conditions: applied five minutes before AA; cited from earlier work
[4] = system: synthesis of TXA2 in human platelets; conditions: applied five minutes before AA; cited from earlier work
[5] = system: synthesis of PGE2 in human platelets; conditions: applied five minutes before AA; cited from earlier work
[6] = protocol of Example 2, PBMC with RANKL and M-CSF

CC(=O)Oc1ccccc1C(=O)O [aspirin, reference compound]
IC50 [1, 6]: > 100 µM
suppression of osteoclast formation under the test conditions (in words) [1]: do not suppress osteoclast formation
inhibition of osteoclasts ([1]; at 25 μM): no inhibition

COc1ccc(/C=C/c2cc(OC)cc(=O)o2)cc1 [yangonin]
relative osteoclast formation inhibitory activity among the six kavalactones [1]: relatively higher osteoclast formation inhibitory activity
IC50 [1, 6]: 8 µM
inhibition of osteoclasts ([1]; at 10 μM): almost complete inhibition

COC1=CC(=O)O[C@@H](/C=C/c2ccc3c(c2)OCO3)C1 [methysticin]
relative osteoclast formation inhibitory activity among the six kavalactones [1]: relatively higher osteoclast formation inhibitory activity
IC50 [1, 6]: 13 µM
inhibition of osteoclasts ([1]; at 15 μM): almost complete inhibition

C=CC[C@@H]1/C=C(\C)C[C@H](C)C[C@H](OC)[C@H]2O[C@@](O)(C(=O)C(=O)N3CCCC[C@H]3C(=O)O[C@H](/C(C)=C/[C@@H]3CC[C@@H](O)[C@H](OC)C3)[C@H](C)[C@@H](O)CC1=O)[C@H](C)C[C@@H]2OC [FK506, reference compound]
IC50 [1, 6]: > 25 µg/mL

IL-4: endogeneous osteoclast formation inhibitor, control compound
suppression of osteoclast formation under the test conditions (in words) [1]: showed consistent activity
IC50 (osteoclast formation inhibition) [1, 6]: <0.001 µg/mL

Cc1ccc(-c2cc(C(F)(F)F)nn2-c2ccc(S(N)(=O)=O)cc2)cc1 [celecoxib, reference compound]
IC50 [1, 6]: > 100 µM

CC/C(=C(\c1ccccc1)c1ccc(OCCN(C)C)cc1)c1ccccc1 [tamoxifen, reference compound]
suppression of osteoclast formation under the test conditions (in words) [1]: showed consistent activity

COC1=CC(=O)O[C@@H](CCc2ccccc2)C1 [dihydrokawain]
relative osteoclast formation inhibitory activity among the six kavalactones [1]: relatively higher osteoclast formation inhibitory activity
IC50 [1, 6]: 10 µM
inhibition of osteoclasts ([1]; at 15 μM): almost complete inhibition

COC1=CC(=O)O[C@@H](/C=C/c2ccccc2)C1 [(+)-kawain]
IC50 [2]: 78 µM
IC50 [3]: 115 µM
IC50 [4]: 71 µM
IC50 [5]: 86 µM

COC1=CC(=O)O[C@@H](/C=C/c2ccccc2)C1 [kawain]
IC50 [1, 6]: 28 µM

COC1=CC(=O)O[C@@H](CCc2ccc3c(c2)OCO3)C1 [dihydromethysticin]
IC50 [1, 6]: 13 µM

COc1cc(/C=C/c2ccccc2)oc(=O)c1 [desmethoxyyangonin]
IC50 [1, 6]: 32 µM
